# “And” between values parts separate entries of the source, which are not always exact repeats. Identical values can stand only once.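 Protocol summary: plate cells (96-well), add compound at 5 concentrations, incubate 48 h, interpolate endpoints linearly. GI50: concentration for 50% inhibition of growth. TGI: concentration producing complete growth inhibition.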
# Experiments:
# Assay in all cases: inhibition of tumour cell growth, NCI panel, 48 h
# UO-31 renal = system: UO-31 renal
# A498 renal = system: A498 renal
# NCI-H460 lung = system: NCI-H460 lung
# A549 NSCLC = system: A549 NSCLC
# UACC-257 melanoma = system: UACC-257 melanoma
# T-47D breast = system: T-47D breast
# MDA-MB-231 breast = system: MDA-MB-231 breast
# DU-145 prostate = system: DU-145 prostate
# OVCAR-5 ovarian = system: OVCAR-5 ovarian
# SNB-75 CNS = system: SNB-75 CNS
SMILES,GI50 (UO-31 renal),TGI (UO-31 renal),GI50 (A498 renal),TGI (A498 renal),GI50 (NCI-H460 lung),TGI (NCI-H460 lung),GI50 (A549 NSCLC),TGI (A549 NSCLC),GI50 (UACC-257 melanoma),TGI (UACC-257 melanoma),GI50 (T-47D breast),TGI (T-47D breast),GI50 (MDA-MB-231 breast),TGI (MDA-MB-231 breast),GI50 (DU-145 prostate),TGI (DU-145 prostate),GI50 (OVCAR-5 ovarian),TGI (OVCAR-5 ovarian),GI50 (SNB-75 CNS),TGI (SNB-75 CNS)
CNC(=O)c1cc2c(Oc3ccc(NC(=S)NC(=O)Cc4ccccc4)cc3F)ccnc2cc1OC,2.56 µM,> 100 µM,1.1 µM,4.35 µM,> 100 µM,> 100 µM,> 48.6 µM,> 100 µM,9.5 µM,> 100 µM,2.8 µM,> 100 µM,3.87 µM,> 100 µM,> 31.4 µM,> 100 µM,> 36.1 µM,> 100 µM,0.183 µM,4.68 µM
CC(C)(C)OC(=O)NCCCCCCCCCCn1c2c(c3ccccc3c1=O)C(=O)c1ccccc1-2,> 100 µM,> 100 µM,26.2 µM,66 µM,> 100 µM,> 100 µM,> 100 µM,> 100 µM,> 100 µM,> 100 µM,> 100 µM,> 100 µM,17.9 µM,85.9 µM,96.6 µM,> 100 µM,> 100 µM,> 100 µM,5.92 µM,28.6 µM
COC(=O)[C@@H](OC)[C@@H]1Cc2cc3cc(OC4CC(OC5CC(O)C(O)C(C)O5)C(O)C(C)O4)c(C)c(O)c3c(O)c2C(=O)[C@H]1OC1CC(OC2CC(OC3CC(C)(O)C(O)C(C)O3)C(O)C(C)O2)C(O)C(C)O1 (stereo partly specified),0.0335 µM,0.12 µM,0.0277 µM,0.0717 µM,0.0429 µM,> 16.5 µM,0.0484 µM,> 16.5 µM,0.0507 µM,0.497 µM,0.0421 µM,> 16.5 µM,0.0479 µM,0.148 µM,0.0433 µM,> 16.5 µM,0.0524 µM,> 16.5 µM,0.0212 µM,0.0487 µM
Nc1cc2nc3ccccc3oc-2cc1=O,1.77 µM,10.4 µM,5.44 µM,11.1 µM,1.77 µM,4.36 µM,1.66 µM,3.84 µM,2.35 µM,6.68 µM,14.9 µM,> 100 µM,22.9 µM,> 100 µM,1.57 µM,2.98 µM,2.41 µM,5.79 µM,1.82 µM,4.63 µM
Cn1c(C(C)(C)OC(=O)Oc2ccccc2)cnc1[N+](=O)[O-],–,> 100 µM,–,> 100 µM,–,> 100 µM,–,> 100 µM,–,> 100 µM,–,> 100 µM,–,> 100 µM,–,> 100 µM,–,> 100 µM,–,> 100 µM
CCN1C(=O)N(CC)C2C1NN=c1s/c(=C\c3cccc([N+](=O)[O-])c3)c(=O)n12 (stereo unspecified),0.321 µM,> 100 µM,0.0254 µM,0.0916 µM,0.0491 µM,> 100 µM,0.181 µM,> 100 µM,> 100 µM,> 100 µM,–,> 100 µM,0.231 µM,–,0.101 µM,> 100 µM,0.324 µM,> 100 µM,0.0378 µM,> 100 µM
CCN(CC)c1ccc(/C=C/C=C(/C#N)C(N)=S)cc1,4.39 µM,> 100 µM,10.9 µM,58.9 µM,18.1 µM,> 100 µM,5.94 µM,> 100 µM,5.05 µM,34.4 µM,2.96 µM,> 100 µM,2.11 µM,6.03 µM,3.88 µM,> 100 µM,4.83 µM,> 100 µM,20.4 µM,> 100 µM
CCCC#CCOC(=O)c1cc([N+](=O)[O-])cc([N+](=O)[O-])c1,–,> 100 µM,–,> 100 µM,–,> 100 µM,–,> 100 µM,–,> 100 µM,–,> 100 µM,–,> 100 µM,–,> 100 µM,–,> 100 µM,–,> 100 µM
N#C/C(=C\c1cccc2cnccc12)N1N=NC2C=CC=CC21 (stereo unspecified),0.602 µM,> 100 µM,1.63 µM,5.59 µM,3.98 µM,32.7 µM,3.02 µM,> 100 µM,4.54 µM,> 100 µM,0.582 µM,6.4 µM,1.94 µM,8.05 µM,3.55 µM,> 100 µM,4.66 µM,> 100 µM,0.184 µM,3.61 µM
CC1(C)CC(=O)c2c(ccc(C(=O)C[C@@H](N)CO)c2N)O1,1.1 µM,> 100 µM,0.921 µM,27.7 µM,0.166 µM,> 100 µM,1.42 µM,> 100 µM,3.25 µM,47.8 µM,4.56 µM,> 67.6 µM,3.13 µM,> 100 µM,0.849 µM,> 93.1 µM,22.8 µM,> 100 µM,17.7 µM,> 100 µM
COc1cc(C2C3=C(COC3=O)Nc3cc4c(cc32)OCO4)cc2c1OCO2 (stereo unspecified),0.332 µM,> 100 µM,0.0276 µM,0.12 µM,0.0734 µM,> 35 µM,0.117 µM,> 100 µM,–,> 100 µM,> 100 µM,> 100 µM,0.128 µM,> 100 µM,0.0832 µM,0.459 µM,1.09 µM,> 100 µM,0.0337 µM,2.75 µM
CN(C)c1ccc(/C=N/NC(=O)c2cccc3ccccc23)c(Cl)c1,14.6 µM,> 100 µM,0.422 µM,6.26 µM,1.01 µM,> 100 µM,0.926 µM,> 100 µM,1.07 µM,97.5 µM,2.95 µM,> 100 µM,11.5 µM,> 100 µM,4.07 µM,> 100 µM,24.1 µM,> 100 µM,1.57 µM,16.3 µM
FC(F)(F)c1[nH]ncc1-c1nc2ccc3[nH]ncc3c2c2c1CCCC2,1.3 µM,5 µM,1.17 µM,2.6 µM,1.72 µM,9.34 µM,1.77 µM,8.45 µM,2.67 µM,8.69 µM,2.03 µM,9.39 µM,1.84 µM,6.19 µM,1.58 µM,10.9 µM,2.51 µM,13.1 µM,1.1 µM,2.52 µM
Cc1cc2c(=O)[nH]c(N)nc2nc1C,–,> 100 µM,–,> 100 µM,–,> 100 µM,–,> 100 µM,–,> 100 µM,–,> 100 µM,–,> 100 µM,–,> 100 µM,–,> 100 µM,–,> 100 µM
COc1ccc(-c2nc(-c3nc4ccc(C(F)(F)F)cc4[nH]3)c3ccccn23)cc1,> 100 µM,> 100 µM,> 100 µM,> 100 µM,9.73 µM,> 100 µM,28.5 µM,> 100 µM,> 100 µM,> 100 µM,5.33 µM,> 100 µM,50.6 µM,> 100 µM,> 100 µM,> 100 µM,> 100 µM,> 100 µM,48.1 µM,> 100 µM
O=C(c1ccccc1O)c1[nH]c(Cl)c(Cl)c1-n1c(C(=O)c2ccccc2O)cc(Cl)c1Cl,2.6 µM and 2.02 µM,11.4 µM and 6.95 µM,0.231 µM and 0.332 µM,2.04 µM and 2.75 µM,0.456 µM and 0.427 µM,11.2 µM and 10.2 µM,2.69 µM and 1.8 µM,10.9 µM and 14.6 µM,1.58 µM and 1.99 µM,5.88 µM and 9.95 µM,0.36 µM and 0.46 µM,3.34 µM and 11.2 µM,1.07 µM and 0.354 µM,5.87 µM and 2.61 µM,2.25 µM and 1.81 µM,16.3 µM and 16.6 µM,2.54 µM and 2.73 µM,9.87 µM and 14.6 µM,1.8 µM and 1.58 µM,10.3 µM and 8.76 µM
CN(C)c1ccc(C(=C2C=CC(=[N+](C)C)C=C2)c2ccccc2Cl)cc1,0.762 µM,6.49 µM,0.289 µM,1.04 µM,0.245 µM,0.804 µM,0.248 µM,4.24 µM,0.528 µM,1.73 µM,0.188 µM,0.901 µM,0.338 µM,1.73 µM,0.374 µM,1.31 µM,0.408 µM,1.48 µM,0.238 µM,0.851 µM
CCN(CC)CCCNc1[nH]ncc2c(C)c3nc4ccccc4c3cc12,3.71 µM,14.6 µM and 22 µM,–,4.73 µM,0.22 µM,1.36 µM and 2.69 µM,0.398 µM,2.94 µM and 14.2 µM,1.4 µM,7.05 µM and 6.14 µM,1.01 µM,17 µM and 20.2 µM,0.709 µM,2.65 µM and 2.51 µM,0.555 µM,11.2 µM and 5.62 µM,0.774 µM,6.81 µM and 16.6 µM,0.64 µM,1.99 µM and 5.3 µM
Oc1c2c(c(O)c3ccccc13)C1(N=N2)c2ccccc2Oc2ccccc21,–,23.3 µM,–,35.7 µM,–,46.3 µM,–,66.5 µM,–,19.1 µM,–,47.8 µM,–,32.4 µM,–,37 µM,–,26.5 µM,–,33.5 µM
O=C1N[C@H]2[C@H](O)[C@H](O)[C@@H](O)[C@H](O)[C@@H]2c2cc3c(c(O)c21)OCO3,0.333 µM and 0.522 µM,2.78 µM and 0.398 µM,0.23 µM and 0.796 µM,–,0.234 µM and 0.084 µM,0.652 µM and 0.448 µM,0.407 µM and 3.51 µM,–,0.314 µM and 0.339 µM,2.4 µM and 0.334 µM,–,0.155 µM,–,0.091 µM,0.0101 µM,0.0963 µM and 0.102 µM,0.657 µM and 1.16 µM,9.37 µM and 1.22 µM,0.257 µM and 1.14 µM,–
CC(=O)/C(=C\c1c(-c2ccccc2)[nH]c2ccccc12)S(=O)(=O)c1ccccc1,1.58 µM,3.54 µM,5.44 µM,15.9 µM,1.04 µM,2.68 µM,6.73 µM,41.9 µM,2.23 µM,8.58 µM,1.26 µM,7.03 µM,1.74 µM,19.2 µM,2.94 µM,9.31 µM,2.01 µM,5.46 µM,1.59 µM,14.6 µM
CC1(C)N=C(N)N=C(N)N1c1ccc(Cl)c(Cl)c1,13.5 µM,> 100 µM,11.2 µM,> 100 µM,0.0919 µM,> 100 µM,0.152 µM,> 100 µM,> 41.6 µM,> 100 µM,> 45.8 µM,> 100 µM,> 100 µM,> 100 µM,0.523 µM,> 100 µM,0.252 µM,> 100 µM,18.7 µM,> 81.3 µM
Cc1ncc(-c2ccnc(Nc3ccc(S(C)(=O)=O)cc3)n2)n1C(C)C,1 µM,> 10 µM,0.647 µM,2.55 µM,0.931 µM,> 5.33 µM,1.34 µM,> 10 µM,1.94 µM,5.62 µM,1.38 µM,> 8.75 µM,1.88 µM,> 9.48 µM,1.32 µM,> 10 µM,1.09 µM,> 8.88 µM,0.377 µM,2.58 µM
CN1CCN(c2ccc(C(=O)Nc3cccc(C#Cc4cccc5[nH]nc(N)c45)c3)cc2C(F)(F)F)CC1,0.713 µM,1.8 µM,2.22 µM,6.76 µM,0.701 µM,1.5 µM,0.767 µM,2.02 µM,1.93 µM,4.53 µM,1.24 µM,5.55 µM,0.568 µM,1.35 µM,1.08 µM,3.2 µM,0.959 µM,3.27 µM,0.624 µM,1.62 µM
CCc1ncnc2cc(OCC3CO3)c(OC)cc12 (stereo unspecified),–,18.4 µM,–,58.1 µM,–,43.8 µM,–,> 100 µM,–,52.9 µM,–,> 100 µM,–,60.9 µM,–,> 100 µM,–,> 100 µM,–,53.7 µM
CC/C=C\C[C@H](O)C/C=C1/C(=O)C=C[C@@H]1C/C=C\CCCC(=O)NC,1.52 µM,3.35 µM,2.34 µM,5.12 µM,1.63 µM,4.15 µM,2.55 µM,6.81 µM,2.08 µM,5.32 µM,2.32 µM,12.5 µM,4.24 µM,14.1 µM,2.73 µM,12.7 µM,2 µM,4.27 µM,10.8 µM,22.7 µM

# Source: PubChem BioAssay (NCI)
